Values quoted from earlier work, collected in US9365559B2, “Crystal form of Dabrafenib and preparation method of use thereof” (Hangzhou Pushai Pharmaceutical Technology Co., LTD., priority 2013, dated 2016).

Tests used:
BRAFV600E-mutan melanoma = conditions: patients with BRAFV600E-mutan melanoma; cited from earlier work
[1] = tested on: one or more Raf-family kinases; conditions: disclosed in WO2009/137391A2 and U.S. Pat. No. 7,994,185B2; cited from earlier work

## CC(C)(C)c1nc(-c2cccc(NS(=O)(=O)c3c(F)cccc3F)c2F)c(-c2ccnc(N)n2)s1 [Dabrafenib, N-[3-[5-(2-aminopyrimidin-4-yl)-2-(tert-butyl)thiazo-4-lyl]-2-fluorophenyl]-2,6-difluorobenzenesulfonamide]
BRAFV600E-mutan melanoma
  safety profile: acceptable safety profile
  therapeutical activity: has therapeutical activities
[1]
  inhibitory effect on Raf-family kinases: has the inhibitory effection
